From PMC8998355, “Diversity-Oriented Synthesis Catalyzed by Diethylaminosulfur-Trifluoride—Preparation of New Antitumor Ecdysteroid Derivatives” (International Journal of Molecular Sciences, 2022)

Tests used:
Type in all cases: cell-based
ABCB1 = molecular target: T1, ABCB1 (Homo sapiens, UniProt P08183); assay: ABCB1 inhibition assay (rhodamine 123 accumulation, flow cytometry); conditions: human, probe rhodamine 123 (5.2 µM); for inhibition at 20 min, 2 µM / inhibition at 20 min, 20 µM: n = 1
T1 construct: expressed in transfected cells; host or cells: L5178Y mouse T-cell lymphoma cells transfected with pHa MDR1/A retrovirus, selected with colchicine (L5178YMDR)
Protocol: ABCB1 inhibition was determined by the intracellular accumulation of rhodamin 123 as reported before. Briefly, 2 × 10^6 cells/mL of L5178Y and L5178YMDR cell lines were re-suspended in serum-free McCoy’s 5A medium and distributed in 0.5 mL aliquots into Eppendorf centrifuge tubes. The compounds were added at a final concentration of 2 or 20 μM and the samples were incubated for 10 min at room temperature. Tariquidar was used as positive control and DMSO as negative control; for the latter, no activity was observed. Subsequently, 10 μL (5.2 μM final concentration) of the ABCB1 substrate fluorescent dye rhodamine 123 was added and the cells were incubated further for 20 min at 37 °C, washed twice and re-suspended in 1 mL PBS for analysis. Fluorescence of the cell population was measured with a PartecCyFlow® flow cytometer (Partec, Münster, Germany). Mean fluorescence intensity percentage was calculated for the treated vs. untreated L5178YMDR cells. Inhibition percentage for the treated cells was calculated from the corresponding values of the untreated L5178Y and L5178YMDR cells, representing 100% and 0% inhibition, respectively.

[1] = system: L5178Y mouse T-cell lymphoma cells; assay: MTT cytotoxicity assay (24 h, 1 × 10^4 cells); conditions: 24 h MTT, n = 3, read-out: Cytotoxicity (IC50 ± SD)
Protocol: (§1) To assess the compounds’ effect on cell growth and viability, we used two different experimental setups of MTT assay. This allowed a comparative evaluation of results obtained from a short-term (24 h) treatment of a relatively higher number (10,000) of cells and those from a long-term (72 h) treatment of a lower cell number (6000), which makes it possible to gain some insight into the cytotoxic vs. cytostatic properties of the compounds. Even though MTT assay is an endpoint detection method, i.e., it provides a single readout of viable cells at the end of the experiment, such a comparison offers a reliable tool to identify antiproliferative activity of compounds that are not cytotoxic.
(§2) L5178Y mouse T-cell lymphoma cells (ECACC Cat. No. 87111908) were obtained from FDA, Silver Spring, MD, USA. These were transfected with pHa MDR1/A retrovirus as described previously. ABCB1-expressing L5178YMDR cells were selected by culturing the infected cells with colchicine. The cell lines were cultured in McCoy’s 5A medium supplemented with 10% heat inactivated horse serum, 2 mM L-glutamine, and penicillin–streptomycin mixture.
(§3) MTT assay was performed in 96-well flat-bottomed microtiter plates as described before. Briefly, a 10 mM concentration stock solution in DMSO was prepared for each compound. These were diluted in 100 μL of McCoy’s 5A medium. Subsequently, 1 × 10^4 (cytotoxicity assay) or 6 × 10^3 (antiproliferative assay) T-cell mouse lymphoma cells in 100 μL of medium were added to each well, except for the medium control wells.
(§4) The culture plates were further incubated at 37 °C for 24 h (cytotoxicity assay) or 72 h (antiproliferative assay); at the end of the incubation period, 20 μL of MTT solution (from a 5 mg/mL stock) was added to each well. After incubation at 37 °C for 4 h, 100 μL of SDS solution (10% in 0.01 M HCI) was added to each well and the plates were further incubated at 37 °C overnight. The cell growth was determined by measuring the optical density at 540 nm (ref. 630 nm) with a Multiscan EX ELISA reader (Thermo Labsystems, Cheshire, WA, USA). IC50 values were calculated by variable slope nonlinear regression using the log(inhibitor) vs. normalized response of GraphPad Prism 5.01 (GraphPad Software Inc., San Diego, CA, USA).

[2] = system: L5178YMDR cells (ABCB1-expressing); assay: MTT cytotoxicity assay (24 h, 1 × 10^4 cells); conditions: Mus musculus, 24 h MTT, n = 3, read-out: Cytotoxicity (IC50 ± SD)
Protocol: as §1, §2, §3, §4

[3] = system: L5178Y mouse T-cell lymphoma cells; assay: MTT antiproliferative assay (72 h, 6 × 10^3 cells); conditions: Mus musculus; L5178Y, 72 h MTT, n = 3; read-out: Antiproliferative Effect (IC50 ± SD)
Protocol: as §1, §2, §3, §4

[4] = system: L5178YMDR cells (ABCB1-expressing); assay: MTT antiproliferative assay (72 h, 6 × 10^3 cells); conditions: Mus musculus, 72 h MTT, n = 3, read-out: Antiproliferative Effect (IC50 ± SD)
Protocol: as §1, §2, §3, §4

[5] = system: MRC-5 human embryonal lung fibroblasts; assay: MTT antiproliferative assay (72 h); conditions: Homo sapiens, MRC5; MRC-5, 72 h MTT, n = 3; read-out: Antiproliferative Effect (IC50 ± SD)
Protocol: as §1
(§5) MRC-5 human embryonal lung fibroblasts (CCL-171, ATCC) were acquired from Sigma-Aldrich (Merck, KGaA, Darmstadt, Germany), and were cultured in EMEM medium containing 4.5 g/L glucose and supplemented with a non-essential amino acid mixture, a selection of vitamins, and 10% of FBS.
(§6) The adherent human fibroblast cells were seeded in 100 μL of EMEM medium overnight before each assay. Two-fold serial dilutions of the compounds (0.19–100 µM) were prepared in separate plates, then transferred to the plates containing the adherent cell lines.
as §4

[6] = MTT cytotoxicity assay (24 h); conditions: human, MRC-5 human embryonal lung fibroblasts; MRC-5, 24 h MTT, n = 3; read-out: Cytotoxicity (IC50 ± SD)
Protocol: as §1, §5, §6, §4

[7] = L5178YMDR, rhodamine 123 accumulation

| SMILES | inhibition at 20 min, 0.02 µM (ABCB1; 20 nM, L5178YMDR, rhodamine 123 accumulation, read-out: ABCB1 inhibition, positive control) [%] | IC50 [1] [µM] | IC50 [2] [µM] | IC50 [3] [µM] | IC50 [4] [µM] | IC50 [5] [µM] | inhibition at 20 min (ABCB1; concentration not given, read-out: direct ABCB1 inhibition) [%] | inhibition at 20 min, 2 µM (ABCB1; [7]) [%] | inhibition at 20 min, 20 µM (ABCB1; [7]) [%] | IC50 at 24 h [6] [µM] |
| --- | --- | --- | --- | --- | --- | --- | --- | --- | --- | --- |
| COc1cc2c(cc1OC)CN(CCc1ccc(NC(=O)c3cc(OC)c(OC)cc3NC(=O)c3cnc4ccccc4c3)cc1)CC2 [tariquidar, reference compound] | 87.5 | – | – | – | – | – | – | – | – | – |
| CC(=O)O[C@H]1C[C@]2(C)C3=CC[C@@]4(C)C(=CC[C@@H]4[C@@]4(C)OC(C)(C)O[C@@H]4CCC(C)(C)O)C3=C(O)C(=O)[C@@]23C[C@@H]13 [Compound 17] | – | 27.2 ± 1 | 35.9 ± 0.6 | 20.3 ± 1 | 14.3 ± 0.5 | 5.9 ± 1.2 | ~50 | 1.08 | 45.5 | – |
| CC(=O)[C@H]1CC[C@@]2(O)C3=CC(=O)[C@@H]4C[C@H]5OC(C)(C)O[C@H]5C[C@]4(C)[C@H]3[C@H](O)C[C@]12C [Compound 3] | – | > 100 | > 100 | 75.5 ± 4.1 | > 100 | 21.4 ± 0.2 | – | -0.03 | -0.35 | > 100 |
| CC(=O)[C@H]1CC[C@@]2(O)C3=CC(=O)[C@@H]4C[C@H]5OC(C)(C)O[C@H]5C[C@]4(C)[C@H]3CC[C@]12C [Compound 9, poststerone 2,3-acetonide] | – | > 100 | > 100 | 49.2 ± 3.4 | 85.2 ± 5.1 | > 100 | – | -0.4 | -0.42 | > 100 |
| COc1cccc2c1C(=O)c1c(O)c3c(c(O)c1C2=O)C[C@@](O)(C(=O)CO)C[C@@H]3O[C@H]1C[C@H](N)[C@H](O)[C@H](C)O1 [Doxorubicin, reference compound] | – | 0.3 ± 0.1 | 8.1 ± 2.8 | 0.014 ± 0.002 | 0.71 ± 0.2 | – | – | – | – | 1.7 ± 0.5 |
